The subject of one series is human erythrocytes. It counts as cell-based. The protocol:
The Ethics Committee in Human Research at Walailak University has approved this study (WUEC-22-242-01; 15 August 2022). The written consent was obtained from a subject involved in the research. Whole blood (5 mL) was collected from a human volunteer and centrifuged at 700× g for 8 min. The pellets were washed 3 times with PBS before diluting to obtain 0.5% erythrocyte suspension. A total of 50 µL of erythrocytes was added to a 96-well plate, and the purified peptide in PBS (50 μL) was mixed to achieve the final peptide concentration of 1, 2, 4, 8, 16, 32, 64, 128, 256, and 512 µg/mL. The mixtures were then incubated at 37 °C for 1 h. They were further centrifuged at 1,000× g for 10 min, and the supernatant was loaded into a microplate before measuring the absorbance at 540 nm. The positive and negative controls were 1% Triton X-100 and untreated samples, respectively, while PBS was used as a blank control. This assay was carried out in three independent experiments. The percent hemolysis was calculated by the following equation:
%Hemolysis=[Asam−Ablank]/[Apos−Ablank]×100 where Asam is the sample absorbance, Apos and Ablank are the absorbance of positive and blank controls, respectively ([Oddo & Hansen, 2017]).

Series [1] relates to MRSA isolate 1096. Nature of the series: microbe, parasite or virus in culture. The following applies: Staphylococcus aureus, 24 h. It counts as cell-based. The protocol: (§1) The assay was conducted in accordance with the guideline of the Clinical and Laboratory Standard Institute (CLSI). […] The cell suspension was prepared in a 20-fold dilution using Cation-Adjusted Mueller-Hinton broth (CAHMB) as a diluent. A total of 10 µL of the diluted bacterial preparation and 100 µL of pure substances (0.25–64 µg/mL) were loaded into the 96-well plates. The plates were incubated at 37 °C for 24 h. Control wells were performed for broth (CAMHB) and inoculum. Vancomycin was tested as a control drug. The experiment was performed in triplicate for each tested strain.

Series [2] deals with MRSA isolate 142. The series can be described thus: microbe, parasite or virus in culture. It counts as cell-based. The following applies: Staphylococcus aureus, 24 h. On the procedure:
as §1

Series [3] has as its system MRSA isolate 2468. The series can be described thus: microbe, parasite or virus in culture. The following applies: Staphylococcus aureus, 24 h. The class given is cell-based. The protocol: as §1
For series [4], the system named is S. aureus TISTR 517. Nature of the series: microbe, parasite or virus in culture. The class given is cell-based. The following applies: Staphylococcus aureus, TISTR517, 24 h. On the procedure:
as §1

Series [5] has as its system MRSA isolate 1096. The series can be described thus: microbe, parasite or virus in culture. The class given is cell-based, Staphylococcus aureus. On the procedure:
(§2) Wells of 9 mm were punched on the solid media surface by a sterile tip, and 100 µL of purified substance was loaded before incubating the plates at 37 °C for 24 h. […] The result was collected from three independent experiments in which the diameter of the zone of inhibition was measured by a vernier caliper and reported as mean ± SD ([Lei et al., 2020]). The significant difference was determined by Student’s t-test at a p-value of less than 0.05.

For series [6], the system named is MRSA isolate 142. Nature of the series: microbe, parasite or virus in culture. The class given is cell-based, Staphylococcus aureus. The protocol:
as §2

For series [7], the system named is MRSA isolate 2468. Nature of the series: microbe, parasite or virus in culture. It counts as cell-based, Staphylococcus aureus. On the procedure: as §2
The test system of series [8] is S. aureus TISTR 517. Nature of the series: microbe, parasite or virus in culture. The class given is cell-based, Staphylococcus aureus. The protocol: as §2
In series [9] the test system is S. aureus TISTR 517. Nature of the series: Inhibition of biofilm formation (crystal violet). The class given is cell-based. The following applies: Staphylococcus aureus, TISTR517, 48 h, read-out: IC50 of biofilm formation. On the procedure:
(§3) The cells were standardized using the same medium to achieve 1 × 10^8 CFU/mL. The cell suspension was mixed with peptide at various concentrations (0.5–256 µg/mL) in a 96-well plate. The plates were then incubated at 37 °C for 48 h. Then, the planktonic bacteria cells were removed from the plates by washing them with PBS. Thereafter, 100 µL of methanol was added to the plate to fix the biofilm-associated cells. The plates were dried and stained with 0.1% crystal violet for 15 min before rinsing twice with PBS. A total of 100 μL of […] was finally added to resolubilize the stained crystal violet. The plates were incubated at 37 °C for 30 min, and the supernatants were transferred to a new 96-well plate. The absorbance at 570 nm was measured by a microplate reader (Thermo Fisher Scientific Inc., Waltham, MA, USA) to determine the biofilm formation. […] One-way ANOVA was used to analyze the significant differences among treated samples compared to the untreated controls at various p-values.

For series [10], the system named is MRSA isolate 2468. Nature of the series: Inhibition of biofilm formation (crystal violet). The class given is cell-based, Staphylococcus aureus. The protocol: as §3
Series [11] deals with MRSA isolate 2468. Nature of the series: Biofilm eradication assay. The class given is cell-based, Staphylococcus aureus. To be noted: vs untreated, p-value < 0.05. On the procedure: (§4) The bacteria were standardized to achieve 1 × 10^8 CFU/mL, and 100 µL of cell suspension was transferred to a 96-well microplate. The plates were incubated at 37 °C for 48 h for biofilm formation. The free bacteria cells were removed from the plates by washing them with PBS. Peptide solutions at the concentrations (0.5–256 µg/mL) were added to the microplate and incubated at 37 °C for 24 h. Subsequently, PBS was used to rewash the plate, and 100 µL of PBS was loaded into each well. The plate was sonicated for 30 min at room temperature, and the samples were taken and made a ten-fold serial dilution. A total of 10 µL of the diluted samples was plated on MH agar for colony count. Vancomycin and untreated samples were used as the positive and negative controls. Only SCD media without bacteria was used as the blank ([Yuan et al., 2019]). The significant difference was evaluated by one-way ANOVA (p-value < 0.05) compared to untreated controls.

Series [12] concerns S. aureus TISTR 517 and MRSA isolate 142, 1096, and 2468. The series can be described thus: microbe, parasite or virus in culture. The class given is cell-based, Staphylococcus aureus. On the procedure: as §1
In series [13] the test system is S. aureus TISTR 517 and MRSA isolate 2468. Nature of the series: Biofilm eradication assay, statements for both tested bacteria. The class given is cell-based, Staphylococcus aureus. The protocol:
as §4

Series [14] relates to S. aureus and MRSA biofilms. The following applies: statically grown biofilms of S. aureus and MRSA; ref Zapotoczna et al., 2017; cited from earlier work. From the text: Biofilm is an important virulence mechanism in many bacterial pathogens. The cells irreversibly adhere to the biotic and abiotic surfaces and are surrounded by an extracellular matrix in response to stress conditions ([Flemming & Wuertz, 2019]). […] S. aureus and MRSA develop a biofilm to decrease or prevent the diffusion of antimicrobial drugs into the cells, resulting in more drug r ...

For series [15] the following is noted: ref Baczek, Walijewski & Kaliszan, 2008, cited from earlier work.
The mark [16] stands for this setting: Staphylococcus aureus, read-out: Inhibition zone.
Setting [17] is: Vancomycin (30 μg), mean ± SD, n = 3.

One may read the IC50 as the concentration that inhibits the measured activity by half.

Values after ≈ are worked out from the molar mass of the structure shown. Values joined by “and” are separate entries in the source; they are usually repeats but may differ in a detail not shown here. Identical values can stand only once. Where no end group is shown, it is not given here.

With MFLVVKVLKYVV [BrSPR19-P2], the “Therapeutic index (TI) of hemolysis / hemolysis index threshold” value in the series on human erythrocytes is 32.
In the case of `CN[C@H](CC(C)C)C(=O)N[C@H]1C(=O)N[C@@H](CC(N)=O)C(=O)N[C@H]2C(=O)N[C@H]3C(=O)N[C@H](C(=O)N[C@H](C(=O)O)c4cc(O)cc(O)c4-c4cc3ccc4O)[C@H](O)c3ccc(c(Cl)c3)Oc3cc2cc(c3O[C@@H]2O[C@H](CO)[C@@H](O)[C@H](O)[C@H]2O[C@H]2C[C@](C)(N)[C@H](O)[C@H](C)O2)Oc2ccc(cc2Cl)[C@H]1O` [Vancomycin], the MBC (against MRSA isolate 1096 [1]; against MRSA isolate 142 [2]; in the series on MRSA isolate 2468 [3]; in the series with S. aureus TISTR 517 [4]; in [12] (Staphylococcus aureus); in series [12] (against all tested bacteria)) was 2 µg/mL (≈ 1.38 µM) each time. Also, the MIC was 2 µg/mL (≈ 1.38 µM) in the series on MRSA isolate 1096 [1]; 2 µg/mL (≈ 1.38 µM) in the series with MRSA isolate 142 [2]; 2 µg/mL (≈ 1.38 µM) against MRSA isolate 2468 [3]; 2 µg/mL (≈ 1.38 µM) in the series on S. aureus TISTR 517 [4]; 2 µg/mL and 1.38 µM in series [12] (Staphylococcus aureus); 2 µg/mL (≈ 1.38 µM) in [12] (against all tested bacteria). Moreover, the zone of inhibition at 30 µg/disc in the series with MRSA isolate 1096 [5] (setting [16]) came out at 23.1 ± 0.36 mm; in the series with MRSA isolate 142 [6] (setting [16]) it was 23.5 ± 0.59 mm; with MRSA isolate 2468 [7] (setting [16]), 23.9 ± 0.1 mm; with S. aureus TISTR 517 [8] (Staphylococcus aureus, TISTR517, read-out: Inhibition zone) it was 20.7 ± 0.23 mm. Moreover, the Inhibition zone in the series with MRSA isolate 1096 [5] (setting [17]) came to 23.10 mm; in the series with MRSA isolate 142 [6] (setting [17]), 23.47 mm; in the series with MRSA isolate 2468 [7] (setting [17]), 23.90 mm; with S. aureus TISTR 517 [8] (setting [17]), 20.73 mm. Besides, the IC50 in the series with S. aureus TISTR 517 [9] amounted to 4.84 µg/mL (≈ 3.34 µM); in the series on MRSA isolate 2468 [10] (Staphylococcus aureus, 48 h, read-out: IC50 of biofilm formation) it was 5.91 µg/mL (≈ 4.08 µM). Also, in the series with MRSA isolate 2468 [10] (4 μg/mL or 2× MIC, 37 °C 48 h, crystal violet, A570, mean ± SD of three experiments), the “Biofilm formation (% of untreated) after treatment” value is recorded as 68.25 ± 4.21%. For the same compound, the “Concentration that significantly reduced persistent cells in biofilm” value with MRSA isolate 2468 [11] is listed as 64 µg/mL. Besides, the “Concentration to destroy mature biofilms as multiple of MIC” value in [13] (128 μg/mL relative to MIC) was found to be 64 × MIC. Also, the “Concentration that completely eradicated biofilm (killed persistent cells)” value in [13] (48 h preformed biofilms, 24 h treatment, both bacteria) is reported as 128 µg/mL. For the same compound, the “Concentration for half-maximal inhibition of biofilms” value in series [14] was 16.0 to 68.2 µg/mL.
Consider “DAEFGHDSG-NH2 [literature model peptide for RPC retention]”, for which, in [15] (isocratic elution by 0.1% TFA and ACN), the RPC retention time is recorded as 3.75 min. In series [15], the pI is reported as 4.02.

(Values after paper PMC10552749, “Anti-methicillin-resistant Staphylococcus aureus and antibiofilm activity of new peptides produced by a Brevibacillus strain” (PeerJ, 2023).)
